{
  "source": "patent US20230135373A1",
  "about": "“METHODS AND COMPOSITIONS FOR TREATING SLEEP APNEA” (APNIMED, INC. (DELAWARE), priority 2020, published 2023)",
  "key": {"[1]": {"test_system": "healthy human individuals", "test": "Pilot study of genioglossus muscle activity (EMGGG)", "assay_type": "in vivo", "protocol": "In healthy human individuals, the effect of once daily taltirelin 5 mg on genioglossus muscle activity is measured in a pilot study.\nA first group of the patients is given once daily taltirelin 5 mg. A second group of patients is given placebo. Genioglossus muscle activity (EMGGG, quantified as a percentage of maximum) is measured during quiet wakefulness. Each peak EMGGG of a single breath is measured and is plotted against the corresponding epiglottic pressure. In addition, EMGGG is measured during stable NREM sleep."}, "OSA human patients": {"test_system": "OSA human patients", "test": "Placebo-controlled, double-blinded, randomized, crossover trial in OSA", "assay_type": "in vivo", "details": "once daily 5-10 mg, 30 minutes before sleep", "protocol": "A placebo-controlled, double-blinded, randomized, crossover trial in OSA human patients is performed. Participants receive treatment (once daily taltirelin 5-10 mg) or placebo in randomized order 30 minutes before sleep."}},
  "data": [
    {"smiles": "CN1C(=O)C[C@@H](C(=O)N[C@@H](Cc2cnc[nH]2)C(=O)N2CCC[C@H]2C(N)=O)NC1=O", "note": "[taltirelin]", "values": [
      {"measurement": "EMGGG activity during NREM sleep compared to placebo", "setting": "[1]; once daily 5 mg, NREM sleep", "value": "much higher EMGGG activity"},
      {"measurement": "effect during REM sleep", "setting": "[1]; once daily 5 mg, subjects exhibiting REM sleep", "value": "effective during REM sleep"},
      {"measurement": "sleep-related reduction in pharyngeal muscle activity (EMGGG)", "setting": "[1]; once daily taltirelin 5 mg vs placebo night, during sleep", "value": "partially or completely prevented"},
      {"measurement": "genioglossus muscle responsiveness to an increase in ventilatory drive", "setting": "OSA human patients", "value": "increased genioglossus muscle responsiveness"},
      {"measurement": "oxygen levels (SaO2)", "setting": "OSA human patients", "value": "increased oxygen levels"},
      {"measurement": "sleep efficiency", "setting": "OSA human patients", "value": "improved sleep efficiency"},
      {"measurement": "total sleep time", "setting": "OSA human patients", "value": "increased total sleep time"},
      {"measurement": "upper airway muscle activity", "setting": "OSA human patients", "value": "improved upper airway muscle activity"},
      {"measurement": "ventilation", "setting": "OSA human patients", "value": "improved ventilation"},
      {"measurement": "OSA severity", "setting": "OSA human patients; all patients", "value": "improvement in OSA severity"},
      {"measurement": "apnea hypopnea index", "setting": "OSA human patients; vs placebo", "value": "reduce the apnea hypopnea index"}
    ]}
  ]
}
